Test results published in patent US20250340557A1, “PYRIMIDINE DERIVATIVE” (ASKA PHARMACEUTICAL CO., LTD., priority 2022, published 2025).
pIC50: −log10 of the molar value.

Target: T1, human mPGES-1 (Homo sapiens, UniProt O14684)
T1 construct: made in house; host or cells: COS-1 cells (transient transfection; microsomal fraction used as enzyme)
T1 sequence (O14684 1-152): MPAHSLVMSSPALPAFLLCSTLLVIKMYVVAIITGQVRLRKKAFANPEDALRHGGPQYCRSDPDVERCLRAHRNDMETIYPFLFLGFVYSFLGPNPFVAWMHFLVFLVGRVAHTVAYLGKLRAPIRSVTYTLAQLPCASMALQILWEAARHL
Assay: Test for mPGES-1 inhibitory activity (microsomal enzyme, PGE2 EIA)
Assay type: biochemical
Settings: microsomes from COS-1 cells transfected with human mPGES-1 cDNA; substrate PGH2 1 μM; 4° C., 4 minutes; PGE2 measured by EIA; read-out: h mPGES1 IC50
Method in brief: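 IC50 values were derived from EIA-quantified PGE2 after a 4 min, 4 °C reaction with PGH2 at 1 μM final, stopped with ferric chloride/citric acid. Beforehand, compound (2% DMSO final) sat 15 min at 4 °C with human mPGES-1 microsomes from transiently transfected COS-1 cells. Buffer was sodium phosphate pH 7.2 containing 2.5 mM reduced glutathione and 1 mM EDTA.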

Row | SMILES | pIC50
1 | Cc1cccc(N2CCC(C(=O)NCc3ccc(C(F)(F)F)c(-c4nc(C(F)(F)F)cc(=O)[nH]4)c3F)CC2)c1 [Example 59, N-{2-fluoro-3-[6-oxo-4-(trifluoromethyl)-1,6-dihydropyrimidin-2-yl]-4-(trifluoromethyl)benzyl}-1-(3-methylphenyl)piperidine-4-carboxamide] | 8.38
2 | O=C(NCc1ccc(C(F)(F)F)c(-c2nc(C(F)(F)F)cc(=O)[nH]2)c1F)C1CCN(c2cccc(C(F)(F)F)n2)CC1 [Example 22, N-{2-fluoro-3-[6-oxo-4-(trifluoromethyl)-1,6-dihydropyrimidin-2-yl]-4-(trifluoromethyl)benzyl}-1-[6-(trifluoromethyl)pyridin-2-yl]piperidine-4-carboxamide] | 8.31
3 | CCc1nc(-c2c(C(F)(F)F)ccc(CNC(=O)C3CCN(c4ccc(C#N)cc4Cl)CC3)c2F)[nH]c(=O)c1F [Example 90, 1-(2-chloro-4-cyanophenyl)-N-[3-(4-ethyl-5-fluoro-6-oxo-1,6-dihydropyrimidin-2-yl)-2-fluoro-4-(trifluoromethyl)benzyl]piperidine-4-carboxamide] | 8.80
4 | CCc1nc(-c2c(C(F)(F)F)ccc(CNC(=O)C3CCN(c4ccc(Cl)cc4)CC3)c2F)[nH]c(=O)c1F [Example 79, 1-(4-chlorophenyl)-N-[3-(4-ethyl-5-fluoro-6-oxo-1,6-dihydropyrimidin-2-yl)-2-fluoro-4-(trifluoromethyl)benzyl]piperidine-4-carboxamide] | 7.25
5 | Cc1nc(-c2c(C(F)(F)F)ccc(CNC(=O)C3CCN(c4ccc(Cl)c(Cl)c4)CC3)c2F)[nH]c(=O)c1F [Example 73, 1-(3,4-dichlorophenyl)-N-[2-fluoro-3-(5-fluoro-4-methyl-6-oxo-1,6-dihydropyrimidin-2-yl)-4-(trifluoromethyl)benzyl]piperidine-4-carboxamide] | 8.36
6 | O=C(NCc1ccc(C(F)(F)F)c(-c2nc(C(F)(F)F)cc(=O)[nH]2)c1F)c1ccc(-c2ccc3nccn3n2)cc1 [Example 2, N-{2-fluoro-3-[6-oxo-4-(trifluoromethyl)-1,6-dihydropyrimidin-2-yl]-4-(trifluoromethyl)benzyl}-4-(imidazo[1,2-b]pyridazin-6-yl)benzamide] | 7.54
7 | Cc1nc(-c2c(C(F)(F)F)ccc(CNC(=O)[C@H]3CC[C@H](OCc4cccc(C(F)(F)F)c4)CC3)c2F)[nH]c(=O)c1F [Example 130, trans-N-[2-fluoro-3-(5-fluoro-4-methyl-6-oxo-1,6-dihydropyrimidin-2-yl)-4-(trifluoromethyl)benzyl]-4-{[3-(trifluoromethyl)benzyl]oxy}cyclohexane-1-carboxamide] | > 9.00
8 | CCc1nc(-c2c(C(F)(F)F)ccc(CNC(=O)[C@H]3CC[C@H](OCc4ccccc4Cl)CC3)c2F)[nH]c(=O)c1F [Example 124, trans-4-[(2-chlorobenzyl)oxy]-N-[3-(4-ethyl-5-fluoro-6-oxo-1,6-dihydropyrimidin-2-yl)-2-fluoro-4-(trifluoromethyl)benzyl]cyclohexane-1-carboxamide] | > 9.00
9 | O=C(NCc1ccc(C(F)(F)F)c(-c2nc(C(F)(F)F)cc(=O)[nH]2)c1)C1CCN(c2ccc(C(F)(F)F)cn2)CC1 [Example 50, N-{3-[6-oxo-4-(trifluoromethyl)-1,6-dihydropyrimidin-2-yl]-4-(trifluoromethyl)benzyl}-1-[5-(trifluoromethyl)pyridin-2-yl]piperidine-4-carboxamide] | > 9.00
10 | O=C(NCc1ccc(C(F)(F)F)c(-c2nc(C(F)(F)F)cc(=O)[nH]2)c1F)C1CCN(c2ccc(F)cc2)CC1 [Example 58, N-{2-fluoro-3-[6-oxo-4-(trifluoromethyl)-1,6-dihydropyrimidin-2-yl]-4-(trifluoromethyl)benzyl}-1-(4-fluorophenyl)piperidine-4-carboxamide] | > 9.00

Same assay, conditions: microsomes of COS-1 cells transfected with human mPGES-1 cDNA; PGH2 1 μM; 4° C., 4 minutes; PGE2 by EIA; read-out: h mPGES1 IC50

Row | SMILES | pIC50
11 | O=c1cc(C(F)(F)F)nc(-c2c(C(F)(F)F)ccc(CNC(=O)[C@H]3C[C@H](OCc4cc(Cl)ccc4F)C3)c2F)[nH]1 [Example 156, trans-3-[(5-chloro-2-fluorobenzyl)oxy]-N-{2-fluoro-3-[6-oxo-4-(trifluoromethyl)-1,6-dihydropyrimidin-2-yl]-4-(trifluoromethyl)benzyl}cyclobutane-1-carboxamide] | > 9.00
12 | O=C(NCc1ccc(C(F)(F)F)c(-c2nc(-c3ccc(C(F)(F)F)cn3)cc(=O)[nH]2)c1F)C1CCN(c2ccc3nccn3n2)CC1 [Example 267, N-(2-fluoro-3-{6-oxo-4-[5-(trifluoromethyl)pyridin-2-yl]-1,6-dihydropyrimidin-2-yl}-4-(trifluoromethyl)benzyl)-1-(imidazo[1,2-b]pyridazin-6-yl)piperidine-4-carboxamide] | > 9.00
13 | Cc1cc(=O)[nH]c(-c2c(C(F)(F)F)ccc(CNC(=O)[C@H]3C[C@H](OCc4cccc(Cl)c4)C3)c2F)n1 [Example 179, trans-3-[(3-chlorobenzyl)oxy]-N-[2-fluoro-3-(4-methyl-6-oxo-1,6-dihydropyrimidin-2-yl)-4-(trifluoromethyl)benzyl]cyclobutane-1-carboxamide] | > 9.00
14 | O=c1cc(C(F)(F)F)nc(-c2c(C(F)(F)F)ccc(CNC(=O)[C@H]3C[C@H](OCc4ccc(F)c(Cl)c4)C3)c2F)[nH]1 [Example 157, trans-3-[(3-chloro-4-fluorobenzyl)oxy]-N-{2-fluoro-3-[6-oxo-4-(trifluoromethyl)-1,6-dihydropyrimidin-2-yl]-4-(trifluoromethyl)benzyl}cyclobutane-1-carboxamide] | > 9.00
15 | O=c1cc(C(F)(F)F)nc(-c2c(C(F)(F)F)ccc(CNC(=O)[C@H]3C[C@@H](OCc4cccc(C(F)(F)F)c4)C3)c2F)[nH]1 [Example 145, cis-N-{2-fluoro-3-[6-oxo-4-(trifluoromethyl)-1,6-dihydropyrimidin-2-yl]-4-(trifluoromethyl)benzyl}-3-{[3-(trifluoromethyl)benzyl]oxy}cyclobutane-1-carboxamide] | 7.01
16 | CCc1nc(-c2c(C(F)(F)F)ccc(CNC(=O)[C@H]3C[C@H](OCc4cccc(F)c4F)C3)c2F)[nH]c(=O)c1F [Example 240, trans-3-[(2,3-difluorobenzyl)oxy]-N-[3-(4-ethyl-5-fluoro-6-oxo-1,6-dihydropyrimidin-2-yl)-2-fluoro-4-(trifluoromethyl)benzyl]cyclobutane-1-carboxamide] | 8.49
17 | Cc1nc(-c2c(C(F)(F)F)ccc(CNC(=O)[C@H]3C[C@H](OCc4cc(F)cc(Cl)c4)C3)c2F)[nH]c(=O)c1F [Example 228, trans-3-[(3-chloro-5-fluorobenzyl)oxy]-N-[2-fluoro-3-(5-fluoro-4-methyl-6-oxo-1,6-dihydropyrimidin-2-yl)-4-(trifluoromethyl)benzyl]cyclobutane-1-carboxamide] | > 9.00
18 | O=c1cc(C(F)(F)F)nc(-c2c(C(F)(F)F)ccc(CNC(=O)[C@H]3C[C@H](OCc4cccc(Cl)c4F)C3)c2F)[nH]1 [Example 155, trans-3-[(3-chloro-2-fluorobenzyl)oxy]-N-{2-fluoro-3-[6-oxo-4-(trifluoromethyl)-1,6-dihydropyrimidin-2-yl]-4-(trifluoromethyl)benzyl}cyclobutane-1-carboxamide] | > 9.00
